In patent US7771935B2, “Evolving new molecular function” (President and Fellows of Harvard College, priority 2002, dated 2010):

Assays:
[1] = Bromide structural and configurational stability under the reaction conditions (MALDI-TOF, chiral HPLC); type: physicochemical; details: 16 hours under the reaction conditions; both enantiomers
[2] = target: T1, Taq DNA polymerase (Thermus aquaticus, UniProt P19821); experiment: PCR incorporation of modified nucleotide triphosphates by Taq DNA polymerase; type: biochemical; details: 30 PCR cycles; pUC19 template; three natural dNTPs
T1 sequence (P19821 whole entry): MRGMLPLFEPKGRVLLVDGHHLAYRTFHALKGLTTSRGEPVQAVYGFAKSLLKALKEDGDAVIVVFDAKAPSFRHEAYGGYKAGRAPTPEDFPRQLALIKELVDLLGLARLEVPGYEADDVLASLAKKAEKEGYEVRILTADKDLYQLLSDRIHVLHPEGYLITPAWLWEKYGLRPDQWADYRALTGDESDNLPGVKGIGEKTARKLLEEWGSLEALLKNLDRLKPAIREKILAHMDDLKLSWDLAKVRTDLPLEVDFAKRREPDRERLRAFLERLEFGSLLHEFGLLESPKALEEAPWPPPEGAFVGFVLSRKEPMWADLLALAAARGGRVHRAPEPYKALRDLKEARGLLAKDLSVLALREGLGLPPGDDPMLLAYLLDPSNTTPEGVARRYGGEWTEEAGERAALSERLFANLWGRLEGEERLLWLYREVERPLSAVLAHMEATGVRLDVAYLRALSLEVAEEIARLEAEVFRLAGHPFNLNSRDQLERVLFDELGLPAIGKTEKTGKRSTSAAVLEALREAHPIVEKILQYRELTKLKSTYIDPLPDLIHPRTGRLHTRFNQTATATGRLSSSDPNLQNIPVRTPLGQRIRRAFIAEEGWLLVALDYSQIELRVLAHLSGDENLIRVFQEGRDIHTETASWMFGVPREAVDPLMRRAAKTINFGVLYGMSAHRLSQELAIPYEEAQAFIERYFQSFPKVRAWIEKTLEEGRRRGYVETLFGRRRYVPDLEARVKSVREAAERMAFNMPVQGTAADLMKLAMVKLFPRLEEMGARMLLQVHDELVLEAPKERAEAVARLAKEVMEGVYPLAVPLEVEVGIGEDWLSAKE
Protocol: The ability of the modified nucleotide triphosphates containing metal-binding functionality shown in FIG. 75 to be accepted by DNA polymerase enzymes was studied. Synthetic nucleotide triphosphates were purified by ion exchange and reverse-phase HPLC and were added to PCR reactions containing Taq DNA polymerase, three natural deoxynucleotide triphosphates, pUC19 template DNA, and two DNA primers. The primers were chosen to generate PCR products ranging from 50 to 200 base pairs in length. Control PCR reactions contained the four natural deoxynucleotide triphosphates and no non-natural nucleotides.

[3] = target: Vent DNA polymerase (Thermococcus litoralis, UniProt P30317, DEL1082-1471/DEL495-1032); details: PCR conditions; cited from earlier work
Vent DNA polymerase, sequence (P30317 other isoform, or with tags, fused parts or gaps DEL495-1032/DEL1082-1471): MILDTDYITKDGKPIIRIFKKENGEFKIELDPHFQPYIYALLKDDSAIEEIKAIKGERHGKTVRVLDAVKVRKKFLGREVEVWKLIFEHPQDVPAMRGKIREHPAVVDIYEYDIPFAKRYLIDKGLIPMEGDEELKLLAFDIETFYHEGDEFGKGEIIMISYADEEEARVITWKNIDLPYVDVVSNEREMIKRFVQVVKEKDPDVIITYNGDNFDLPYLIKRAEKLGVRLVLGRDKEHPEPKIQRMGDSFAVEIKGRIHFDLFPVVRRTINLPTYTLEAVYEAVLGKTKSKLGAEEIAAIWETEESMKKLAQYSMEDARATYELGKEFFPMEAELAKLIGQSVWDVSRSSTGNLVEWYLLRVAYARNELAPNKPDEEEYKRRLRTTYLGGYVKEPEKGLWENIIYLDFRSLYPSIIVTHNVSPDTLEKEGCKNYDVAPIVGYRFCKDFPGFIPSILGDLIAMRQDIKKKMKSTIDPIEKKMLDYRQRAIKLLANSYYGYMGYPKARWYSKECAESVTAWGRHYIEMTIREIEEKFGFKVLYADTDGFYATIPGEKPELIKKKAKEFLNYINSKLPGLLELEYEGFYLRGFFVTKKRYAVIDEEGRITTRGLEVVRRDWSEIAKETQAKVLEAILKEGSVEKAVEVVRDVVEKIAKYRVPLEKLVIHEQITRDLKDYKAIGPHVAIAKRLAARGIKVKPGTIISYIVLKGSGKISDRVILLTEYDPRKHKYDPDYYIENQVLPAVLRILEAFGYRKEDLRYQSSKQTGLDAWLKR

[4] = target: T1, Taq DNA polymerase; details: cited from earlier work
[5] = target: T2, chymotrypsin (Bos taurus, UniProt P00766, DEL14-15/DEL147-148); details: known binding of the free ligand; cited from earlier work
T2 construct: purchased Sigma

[6] = target: T3, papain (Carica papaya, UniProt P00784); details: known binding of the free ligand; cited from earlier work
T3 construct: purchased Sigma
T3 sequence (P00784 134-345): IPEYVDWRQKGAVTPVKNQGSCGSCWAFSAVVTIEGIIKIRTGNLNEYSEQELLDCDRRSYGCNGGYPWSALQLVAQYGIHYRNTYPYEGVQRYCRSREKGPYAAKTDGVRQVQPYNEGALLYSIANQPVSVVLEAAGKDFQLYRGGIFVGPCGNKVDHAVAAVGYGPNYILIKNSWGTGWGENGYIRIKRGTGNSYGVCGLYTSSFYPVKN

[7] = target: glutathione S-transferase (GST); details: read-out: Kd of binding to glutathione S-transferase (GST); cited from earlier work

Row | SMILES | incorporation by Taq DNA polymerase [2] | acceptance by Taq DNA polymerase [4] | other results
1 | CNC(=O)C(C)Br (racemic) [N-methyl 2-bromopropionamide] |  |  | configurational stability by chiral HPLC [1]: No change in retention time
2 | Cc1nc2c(N)ncnc2n1C1CC(O)C(COP(=O)(O)OP(=O)(O)OP(=O)(O)O)O1 (stereo not drawn) [8-modified adenosine triphosphate 32] | not accepted |  | 
3 | CCc1nc2c(N)ncnc2n1C1CC(O)C(COP(=O)(O)OP(=O)(O)OP(=O)(O)O)O1 (stereo not drawn) [8-modified adenosine triphosphate 33] | not accepted |  | 
4 | CCCC#Cc1cn([C@H]2C[C@H](O)[C@@H](CO)O2)c(=O)[nH]c1=O [analog 1, 5-(1-pentynyl)-deoxyuridine] |  |  | acceptance by Vent DNA polymerase [3]: acceptance
5 | NCCCc1cn(C2CC(O)C(CO)O2)c2ncnc(N)c12 (stereo not drawn) [analog 11] |  | acceptance | 
6 | NCC=Cc1cn(C2CC(O)C(CO)O2)c2ncnc(N)c12 (stereo not drawn) [analog 12] |  | acceptance | 
7 | O=C(O)CCCC[C@@H]1SC[C@@H]2NC(=O)N[C@@H]21 [biotin] |  |  | affinity for chymotrypsin [5]: no significant affinity
8 | CC(C)C[C@H](NC(=O)[C@@H](NC(=O)N[C@@H](Cc1ccccc1)C(=O)O)[C@@H]1CCN=C(N)N1)C(=O)N[C@H](C=O)Cc1ccccc1 [chymostatin] |  |  | affinity for papain [6]: binds to both proteases; affinity for chymotrypsin [5]: binds to both proteases
9 | NC(=O)CNC(=O)[C@H](CS)NC(=O)CC[C@H](N)C(=O)O [glutathione amide] |  |  | Kd [7]: ~10 µM
10 | NCC#Cc1cn([C@H]2C[C@H](O)[C@@H](CO)O2)c2ncnc(N)c12 [uridine analog 13, 7-aminopropynyl-7-deazadeoxyadenosine] | efficiently incorporated | acceptance | 
